Test results as given in US7090985B2, “Methods for the identification of agents for the treatment of seizures, neurological diseases, endocrinopathies and hormonal diseases” (UCB, S.A., priority 2002, dated 2006).

Columns and labels:
[1] = adjunctive therapy, adults; cited from earlier work
[2] = biological target: T1, human SV2A (Homo sapiens, UniProt Q7L0J3); assay: 3H-30889 intact cell binding to COS-7 cells transfected with SV2A; conditions: displacement of 3H-30889, intact transfected COS-7 cells
T1 construct: expressed in transfected cells; host or cells: COS-7 cells, transient transfection (Lipofectamine 2000), vector pDEST 12.2
Text: The human SV2A coding region was transferred from the pDONR GATEWAY cloning vector to a pDEST 12.2 Gateway expression vector. This vector has a CMV promoter driving the introduced gene, and an SV40 ori, which allows very high levels of replication in the COS-7 cell line, which contains the large T antigen. In addition, the human SV2A coding region was transferred into a pDEST 40 Gateway expression vector. This vector is very similar to the 12.2 vector above, with a CMV promoter driving expression of hSV2A, and an SV40 ori, and a Neomycin resistance gene.
Lipofectamine 2000 (Invitrogen) transfection reagent was used to transfect DNA into 90% confluent COS-7 cells. Also, the same reagent was used to transfect the hSV2A containing vector into the PC12a cell line, and selecting for antibiotic resistance. Anti-SV2 polyclonal antibody (CalBiochem) was used to test for expression in either transfected COS-7 cells, or transfected PC 12a cells, of the SV2A product. Lysates of the COS-7 cells were collected at 18 hrs after transfection on an SDS-PAGE gel, transferred to a membrane, and probed with a polyclonal antibody against SV2A, in comparison to crude rat brain membranes (FIG. 12A). Also shown are lysates from a non-transfected COS-7 cells, non-transfected PC12a cells (low in LBS), PC12bs cells (high in LBS), or PC 12a cells transfected with hSV2A (FIG. 12B). No labeling of protein bands is observed in the untransfected COS-7 control, while the transfected COS-7 cells show multiple bands, with most density in the range of 80–120 kD, perhaps due to multiple glycosylation states of the expressed protein. […]
In a binding experiment, specific binding was measured of ^3H-30889 to COS-7 cells that have either been transfected with SV2A-12.2, or as controls, a β-gal expressing vector, or cells that have not been transfected (FIG. 13). […] The cells were lysed on the plate, transferred to scintillation vials with scintillation fluid and counted for ^3H decay emission. […]

[3] = system: audiogenic-susceptible mouse; conditions: cited from earlier work
[4] = system: peripheral tissues including heart, kidneys, spleen, pancreas, adrenals, lungs and liver; conditions: radiolabel studies; cited from earlier work
[5] = biological target: T2, levetiracetam binding site (LBS) (Rattus norvegicus, UniProt Q02563); parameters: from tissue; host or cells: rat brain (crude membranes; 25 µm brain slices for autoradiography); conditions: cited from earlier work
[6] = system: peripheral tissues; assay: [3H]ucb 30889 specific binding in peripheral tissues; conditions: 150 μg of protein/assay, 1.3 nM radioligand; limit of detection Bmax 200 fmol/mg protein
Protocol: The limit of detection under the experimental conditions (150 μg of protein/assay and 1.3 nM of radioligand) was a Bmax of 200 fmol/mg protein.

[7] = system: COS-7; assay: [3H]ucb 30889 binding in cell types; conditions: untransfected COS-7 cell line
Protocol: (§1) To identify and characterize the LBS in situ, ^[3H]ucb 30889 was used to map the LBS within the brain and to study both its cellular and subcellular distribution. […] Binding assays with rat brain membranes and various neuronal cell lines were performed under similar conditions. […] For photolabeling, membranes were incubated with […] ^[3H]ucb 30889 for 120 min at 4° C. in the same buffer, followed by irradiation with UV-light for 30 min.
(§2) Abbreviation: nd, not detected.
In addition, a PC12 cell line subclone, PC12a, which is low in LBS, was used to establish a pool of PC12 cells expressing hSV2A under stable antibiotic selection.

[8] = system: PC12; assay: [3H]ucb 30889 binding in cell types; parameters: species or system rat
Protocol: as §1, §2

[9] = biological target: T2, levetiracetam binding site (LBS); assay: [3H]ucb 30889 binding on crude rat brain membranes (kinetics, saturation, competition)

T2 sequence (Q02563 whole entry): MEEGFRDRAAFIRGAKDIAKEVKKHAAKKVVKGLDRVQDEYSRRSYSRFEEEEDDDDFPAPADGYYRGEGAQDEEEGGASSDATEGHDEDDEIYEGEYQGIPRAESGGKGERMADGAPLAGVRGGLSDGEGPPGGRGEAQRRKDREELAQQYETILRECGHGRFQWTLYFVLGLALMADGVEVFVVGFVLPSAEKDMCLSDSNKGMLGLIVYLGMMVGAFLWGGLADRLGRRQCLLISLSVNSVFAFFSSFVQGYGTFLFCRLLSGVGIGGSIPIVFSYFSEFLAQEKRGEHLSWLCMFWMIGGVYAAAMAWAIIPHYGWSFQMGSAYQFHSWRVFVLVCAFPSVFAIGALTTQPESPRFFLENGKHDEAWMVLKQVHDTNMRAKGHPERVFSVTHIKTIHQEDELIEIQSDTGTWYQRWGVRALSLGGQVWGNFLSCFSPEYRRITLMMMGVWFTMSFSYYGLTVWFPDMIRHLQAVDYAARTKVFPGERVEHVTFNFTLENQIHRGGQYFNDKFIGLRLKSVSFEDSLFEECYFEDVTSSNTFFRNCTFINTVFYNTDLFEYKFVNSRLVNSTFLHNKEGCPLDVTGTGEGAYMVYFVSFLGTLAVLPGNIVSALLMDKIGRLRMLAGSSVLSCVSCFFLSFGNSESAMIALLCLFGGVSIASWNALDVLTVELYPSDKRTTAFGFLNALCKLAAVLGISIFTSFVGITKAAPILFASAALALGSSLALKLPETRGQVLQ
T1 sequence (Q7L0J3 whole entry): as the sequence (Q02563 whole entry) above, with E53D, A62S, A71T, D144E, T154A, S440G, A482S, V572I, L634M counted along it

Compound | efficacy in controlling refractory partial seizures [1] | tolerability [1] | IC50 against SV2A expressed in COS-7 cells (rank order) [2] | suppression of seizures [3] | specific binding [4] | affinity ([5]; rat hippocampal membranes) | binding capacity ([5]; rat hippocampal membranes) | specific binding [6] | binding [7] | Bmax [8] | Kd [8] | Kd [9] | Ki [9] | times less affinity for the LBS than levetiracetam ([5]; rat brain membranes)
CC[C@@H](C(N)=O)N1CCCC1=O [levetiracetam, (S)-α-ethyl-2-oxo-1-pyrrolidine acetamide] | effective | well tolerated | same rank order as seen in studies of LBS in rat brain | unexpected potent ability | no specific binding | modest affinity | high binding capacity |  |  |  |  |  |  | 
CC[C@@H](C(N)=O)N1CC(c2cccc(N=[N+]=[N-])c2)CC1=O (stereo partly shown) [ucb 30889] |  |  | same rank order as seen in studies of LBS in rat brain |  |  |  |  | could not be detected | no binding above background | 79000 sites/cell | 50 nM | 42 nM | 79.4 nM | 
CC[C@H](C(N)=O)N1CCCC1=O [ucb L060] |  |  | same rank order as seen in studies of LBS in rat brain |  |  |  |  |  |  |  |  |  |  | about 1000 times
